According to paper PMC9459842, “Chemical Profiling and Biological Activities of Pelargonium graveolens Essential Oils at Three Different Phenological Stages” (Plants, 2022):
Marks after values point to notes of the source that are not given here.

How the values were obtained:
[1] = system: Escherchia coli ATCC 25922; assay: disc diffusion assay; type: cell-based, Escherichia coli; conditions: E. coli ATCC 25922; 50 μL of oil/well, chloramphenicol 30 µg; includes 6 mm well
Description: (§1) The antibacterial activity was evaluated against the following six bacterial strains representing Gram-positive and Gram-negative bacteria: Escherichia coli ATCC 25922, Proteus mirabilis ATCC 25933, Salmonella Typhimurium ATCC 700408, Bacillus subtilis ATCC 6633, Staphylococcus aureus ATCC 29213, and Listeria monocytogenes ATCC 13932. The tested bacterial strains were prepared by inoculating a loopful from the frozen stock (−20 °C) in Mueller–Hinton Agar (Biokar, Beauvais, France) and incubated at 37 °C for 24 h under an aerobic environment.
(§2) The primary screening of the antimicrobial activity of the studied samples was evaluated by the disc diffusion method according to the previously published investigation. Briefly, the culture suspension of each species was inoculated in Mueller–Hinton Agar (Biolife, Italiana, Milano-Italy). […] Chloramphenicol (30 µg) was used as a positive control for bacteria strains, while dimethylsulfoxide (DMSO) (10 µL; 5%) was used as a negative control. The plates were incubated at the following growth conditions; 37 °C for 24 h, 25 °C for 48 h, and 25 °C for 72 h for bacteria, yeast, and fungi, respectively. After incubation, the inhibitory diameters were measured in millimeters, and the results were expressed as means ± Standard Deviation of three replicates.

[2] = system: Proteus mirabilis ATCC 25933; assay: disc diffusion assay; type: cell-based; conditions: P. mirabilis ATCC 25933; 50 μL of oil/well, chloramphenicol 30 µg; includes 6 mm well
Description: as §1, §2

[3] = system: Bacillus subtilis ATCC 6633; assay: disc diffusion assay; type: cell-based; conditions: B. subtilis ATCC 6633; 50 μL of oil/well, chloramphenicol 30 µg; includes 6 mm well
Description: as §1, §2

[4] = system: Salmonella Typhimurium ATCC700408; assay: disc diffusion assay; type: cell-based; conditions: S. Typhimurium ATCC700408; 50 μL of oil/well, chloramphenicol 30 µg; includes 6 mm well
Description: as §1, §2

[5] = system: Listeria monocytogenes ATCC 13932; assay: disc diffusion assay; type: cell-based; conditions: L. monocytogenes ATCC 13932; 50 μL of oil/well, chloramphenicol 30 µg; includes 6 mm well
Description: as §1, §2

[6] = system: carrageenan-induced edema; design: method as in PMID 12587692; conditions: 32, 64, and 96 mg/kg; cited from earlier work
[7] = system: monocytes; design: method as in PMID 9889172; conditions: in vitro; cited from earlier work
[8] = system: rats treated with ethanol for the induction of gastric ulcers; design: method as in PMID 24466200; conditions: 50 mg/kg; cited from earlier work
[9] = system: diabetic animals; design: method as in PMID 28549291; conditions: daily doses 25, 50, and 100 mg/kg b.w.; cited from earlier work
[10] = DPPH antioxidant assay; type: biochemical; conditions: n = 3
Description: (§3) The antioxidant activity of PGEO was evaluated by using […] complementary methods, DPPH, FRAP, ABTS, and H2O2 assays, according to the previously published protocols. The results are expressed as the concentration of PGEO providing 50% inhibition (IC50) and calculated by plotting the inhibition degrees against the essential oil concentrations. Trolox and ascorbic acid were used as positive controls. The assays were carried out in triplicate, and the IC50 values were presented as means ± SD.

[11] = ABTS antioxidant assay; type: biochemical; conditions: n = 3
Description: as §3

[12] = FRAP antioxidant assay; type: biochemical; conditions: n = 3
Description: as §3

[13] = H2O2 antioxidant assay; type: biochemical; conditions: n = 3
Description: as §3

[14] = system: catabolic and inflammatory pathways induced by IL-1β; design: method as in PMID 24455984; conditions: in vitro; cited from earlier work
[15] = system: COX-2; design: method as in PMID 26721216; conditions: cited from earlier work
[16] = system: alloxan-induced diabetic mice; design: method as in doi:10.23893/1307-2080.APS.05522; conditions: 2 and 24 h after the treatment; cited from earlier work
[17] = system: occlusion of the middle cerebral artery in male rats; conditions: intraperitoneal 100 mg/kg, cited from earlier work
[18] = system: inflammatory responses by lipopolysaccharide (LPS) in mice; conditions: cited from earlier work

O=C(N[C@H](CO)[C@H](O)c1ccc([N+](=O)[O-])cc1)C(Cl)Cl [Chloramphenicol]
inhibitory diameter [1]: 22.47 ± 0.21 mm | inhibitory diameter [2]: 21.27 ± 0.21 mm | inhibitory diameter [3]: 15.87 ± 0.21 mm | inhibitory diameter [4]: 13.17 ± 0.25 mm | inhibitory diameter [5]: 29.07 ± 0.58 mm

C=CC(C)(CCC=C(C)C)OC(C)=O (stereo not shown) [linalyl acetate]
carrageenan-induced edema [6]: remarkable reduction

CC1CCC(C(C)C)C(O)C1 (stereo not shown) [menthol]
production of IL-1, PGE2, and LTB4 [7]: inhibit the production of inflammation mediators | levels of IL-6 and TNF-α [8]: reduced the levels of IL-6 and TNF-α | glycosylated hemoglobin, blood glucose levels [9]: decreased glycosylated hemoglobin, blood glucose levels

O=C1O[C@H]([C@@H](O)CO)C(O)=C1O [Ascorbic Acid, Ascorbic acid]
antioxidant activity IC50, DPPH [10]: 15.13 ± 0.04 ^a μg/mL | antioxidant activity IC50, ABTS [11]: 42.22 ± 0.05 ^a μg/mL | antioxidant activity IC50, FRAP [12]: 31.47 ± 1.07 ^a μg/mL | antioxidant activity IC50, H2O2 [13]: 23.34 ± 0.03 ^a μg/mL

CC1=CCC2CC1C2(C)C (stereo not drawn) [α-pinene]
expression of catabolic and inflammatory genes, activation of NF-κB and JNK [14]: strongly inhibits | COX-2 overexpression [15]: potent effect on COX-2 overexpression | fasting blood glucose levels [16]: reduce fasting blood glucose levels | expression of IL-1 and TNF-α [17]: decreased | concentration of IL-6, NO, and malondialdehyde (MDA) ([17]; striatum, cortex, and hippocampus): decreased | synthesis of nitric oxide (NO), TNF-α, and IL-6 [18]: decrease the synthesis of nitric oxide (NO), TNF-α, and IL-6

Cc1c(C)c2c(c(C)c1O)CCC(C)(C(=O)O)O2 (stereo not shown) [Trolox]
antioxidant activity IC50, DPPH [10]: 24.31 ± 0.02 ^b μg/mL | antioxidant activity IC50, ABTS [11]: 61.48 ± 1.32 ^b μg/mL | antioxidant activity IC50, FRAP [12]: 48.25 ± 0.05 ^b μg/mL
